Assay results as given in patent publication US10226509B2, “Lymphangiogenesis inhibitors for cancer and for graft survival” (TUFTS UNIVERSITY, priority 2014, dated 2019).

Tests used:
[1] = test system: VEGF-C-induced LEC sprouting; experiment: LEC sprouting assay: VEGF-C-induced sprouting; format: cell-based, human
Method: LEC spheroids were generated by seeding primary LECs at passage 4 or 5 in each well of 384-well hanging-drop plates (3D Biomatrix) in complete EGM-2 MV medium containing 0.25% methyl cellulose according to the manufacturer's instructions (750 cells/well). After 18 hours, LEC spheroids were collected, resuspended in serum-free EBM-2 basal medium, and mixed with collagen solution (PureCol collagen, Advanced BioMatrix, 2.2 mg/ml in M199 medium, pH adjusted to 7.4 with NaHCO3 and NaOH). Aliquots of the LEC spheroid/collagen mixture (250 μl/well of 48-well plate) were incubated in the presence or absence of various test agents for 24 hr. At the end of the incubation period, spheroids were stained with Calcein AM (Invitrogen, 1 μg/mL, 37° C., and 30 min). Fluorescent images were acquired using the EVOS FL cell imaging system, pixels were inverted for better visualization and cumulative length of each sprout was calculated. Results were expressed as fold change compared to corresponding controls. It was observed that sprout lengths vary from passages to passages. Test agents used included thiodigalactoside (10 to 50 mM, Carbosynth), 3′-sialyl lactose (2 to 10 mM, Carbosynth), 6′-sialyl lactose (2 to 10 mM, Carbosynth), LY294002 (20 μM, Abeam), U0126 (20 μM, Abeam), PD0325901 (1 μM, Selleckchem), human VEGFR-3-Fc chimera (10 μg/ml, R&D), human VEGFR-2-Fc chimera (10 μg/ml, R&D), Avastin (10 μg/ml, bevacizumab, Genentech/Roche), human control IgG (10 μg/ml, Southern Biotech), anti-human podoplanin functional grade antibody (10 μg/ml, eBioscience), and rat IgG2a κ isotype control functional grade antibody (10 μg/ml, eBioscience).
In this assay, the LEC spheroids were treated with VEGF-C (50 ng/ml) in the presence or absence of 0.75 μM of Gal-8 for 24 hours, and then accumulated sprout lengths were quantified. […] Synergistic effect of Gal-8 on VEGF-C-induced LEC sprouting was dose-dependent. […] At concentrations >0.5 μM Gal-8, there was no further increase in the degree of VEGF-C-induced lymphangiogenesis (FIG. 4C).
To further characterize the role of carbohydrate-mediated recognition in VEGF-C-induced lymphangiogenesis, LEC spheroids were stimulated with VEGF-C (50 ng/ml) in the presence or absence of three different galectin inhibitors. […] Therefore, the data establishes the critical role of Gal-8-mediated carbohydrate-mediated recognition in VEGF-C-induced lymphangiogenesis.

[2] = test system: mouse corneas; experiment: Corneal mouse micropocket lymphangiogenesis assay; format: in vivo; conditions: for mean lymphatic vessel areas: 160 ng pellet, seven days
Method: The corneal micropocket lymphangiogenesis assay was performed using implants containing a test agent, hydron (polyhydroxylmethylmethacrylate), and sucralfate (Cao, R., et al. 2011. Nat Protoc 6:817-826; Rogers, M. S., et al. 2007. Nat Protoc 2:2545-2550). Test agents included full-length Gal-8 (40-320 ng/pellet) and VEGF-C (160 ng/pellet). Implants containing hydron and sucralfate alone served as negative controls. The mice were anesthetized by intraperitoneal injection of a mixture of ketamine (90-120 mg/kg) and xylazine (10 mg/kg). The eyes were topically anesthetized with proparacaine and were gently proptosed (forwardly displaced) with forceps. Using a corneal blade and a stereoscope, intrastromal linear keratotomy was performed about 2 mm from the limbus. Using a von Graefe knife (Miltex), a pocket was extended towards the limbus, and the pellet was maneuvered into the pocket. The wound was coated with a veterinary ophthalmic ointment (Akorn) to prevent infection. Mouse corneas were harvested 7 days after pellet implantation, fixed in 4% paraformaldehyde/PBS (1 hour at 4° C.), washed with PBS, and fixed again in iced acetone (15 min at −20° C.). To quantitate the extent of lymphangiogenesis in Prox-1-EGFP reporter mice, flat mounts of the dissected corneas were evaluated by fluorescence microscopy. Fluorescent images were acquired by EVOS FL cell imaging system (Invitrogen), and vessel areas were calculated using the formula (Rogers, M. S., et al. 2007. Nat Protoc 2:2545-2550): vessel area=pellet distance×vessel length×clock hours×[…]. To quantitate the extent of lymphangiogenesis in WT and PDPN-deficient mice, corneas were stained with eFluor 570-anti-mouse LYVE-1 (clone ALY7, eBioScience, and 1:75) in 10% goat serum/0.2% Triton X-100/PBS overnight, 4° C. After several washes with 0.2% Triton X-100/PBS, the corneas were flattened and mounted with VECTASHIELD mounting medium (Vector Laboratories) and evaluated by fluorescence microscopy. In some examples, for comparisons, corneas were stained with Alexa Fluor® 488-anti-mouse CD31 (clone MEC13.3, 1:100, BioLegend) to visualize blood vessels.

Substance: Gal-8: recombinant galectin-8, tandem-repeat type galectin with two different CRDs
- VEGF-C-induced LEC sprouting, times higher than VEGF-C alone or Gal-8 alone ([1]; VEGF-C 50 ng/ml plus 0.75 μM of Gal-8): 5 times
- effect on VEGF-C-induced LEC sprouting (in words) ([1]; VEGF-C 50 ng/ml, 24 h): markedly enhanced
- mean lymphatic vessel areas ([2]; PDPN KO mice): 0.28 mm^2
- mean lymphatic vessel areas ([2]; WT mice): 0.78 mm^2
- lymphatic vessel growth, times higher than either VEGF-C pellet or Gal-8 pellet alone ([2]; corneas implanted with both VEGF-C and Gal-8 pellets): 2.2 times
- lymphangiogenesis induced by pellet in cornea (in words) ([2]; one week after implantation, Gal-8 40-320 ng/pellet, VEGF-C 160 ng, WT or Prox1-EGFP mice): increased in a dose-dependent manner
- effect of Gal-8 pellet on VEGF-C-induced lymphangiogenesis in vivo (in words) ([2]; two separate pellets (VEGF-C and Gal-8), Prox1-EGFP reporter mice, one week): augmented VEGF-C-induced lymphangiogenesis
